For one assay, the system named is SNB-19. The assay can be described thus: Cytotoxicity against human SNB19 cells. It is filed as functional.
Another assay has as its system KM12. Description: Cytotoxicity against human KM12 cells. It is filed as functional.
A further assay concerns NCI-H226. Description: Cytotoxicity against human NCI-H226 cells. It is filed as functional.
Another assay deals with K562. Description: Cytotoxicity against human K562 cells. It is filed as functional.
The test system of a further assay is PC-3. Description: Cytotoxicity against human PC3 cells. It is filed as functional.
Assay [1] concerns the target Aurora kinase A (Homo sapiens) (UniProt O14965). The assay can be described thus: Inhibition of Aurora A assessed as residual activity at 10 uM by radioactivity assay in presence of 5 uM ATP.
Assay [2] addresses Tyrosine-protein kinase BTK (Homo sapiens) (UniProt Q06187). The assay can be described thus: Inhibition of BTK assessed as residual activity at 10 uM by radioactivity assay in presence of 50 uM ATP.
In assay [3] the target is Ephrin type-B receptor 4 (Homo sapiens) (UniProt P54760). The assay can be described thus: Inhibition of EPH-B4 assessed as residual activity at 10 uM by radioactivity assay in presence of 50 uM ATP.
In assay [4] the target is Serine/threonine-protein kinase STK11 (Homo sapiens) (UniProt Q15831). The assay can be described thus: Inhibition of LKB1 assessed as residual activity at 10 uM by radioactivity assay in presence of 20 uM ATP.
Assay [5] has as its target MAP kinase-interacting serine/threonine-protein kinase 1 (Homo sapiens) (UniProt Q9BUB5). The assay can be described thus: Inhibition of MNK1 assessed as residual activity at 10 uM by radioactivity assay in presence of 50 uM ATP.
Assay [6] deals with NUAK family SNF1-like kinase 1 (Homo sapiens) (UniProt O60285). Description: Inhibition of NUAK1 assessed as residual activity at 10 uM by radioactivity assay in presence of 20 uM ATP.
Assay [7] has as its target Mitogen-activated protein kinase 13 (Homo sapiens) (UniProt O15264). The assay can be described thus: Inhibition of p38delta MAPK assessed as residual activity at 10 uM by radioactivity assay in presence of 5 uM ATP.
The target in assay [8] is Serine/threonine-protein kinase PAK 6 (Homo sapiens) (UniProt Q9NQU5). Description: Inhibition of PAK6 assessed as residual activity at 10 uM by radioactivity assay in presence of 20 uM ATP.
For assay [9], the target named is Receptor-interacting serine/threonine-protein kinase 2 (Homo sapiens) (UniProt O43353). The assay can be described thus: Inhibition of RIPK2 assessed as residual activity at 10 uM by radioactivity assay in presence of 20 uM ATP.
Assay [10] addresses Rho-associated protein kinase 2 (Homo sapiens) (UniProt O75116). The assay can be described thus: Inhibition of ROCK2 assessed as residual activity at 10 uM by radioactivity assay in presence of 20 uM ATP.
For assay [11], the target named is Dual specificity protein kinase TTK (Homo sapiens) (UniProt P33981). Description: Inhibition of TTK assessed as residual activity at 10 uM by radioactivity assay in presence of 20 uM ATP.

In general, GI50 refers to the concentration at which growth is held to half of that of the control. Higher therefore signals less potent growth inhibition.

Chain of Serine/threonine-protein kinase PAK 6 (Homo sapiens) (Q9NQU5 whole entry, looked up): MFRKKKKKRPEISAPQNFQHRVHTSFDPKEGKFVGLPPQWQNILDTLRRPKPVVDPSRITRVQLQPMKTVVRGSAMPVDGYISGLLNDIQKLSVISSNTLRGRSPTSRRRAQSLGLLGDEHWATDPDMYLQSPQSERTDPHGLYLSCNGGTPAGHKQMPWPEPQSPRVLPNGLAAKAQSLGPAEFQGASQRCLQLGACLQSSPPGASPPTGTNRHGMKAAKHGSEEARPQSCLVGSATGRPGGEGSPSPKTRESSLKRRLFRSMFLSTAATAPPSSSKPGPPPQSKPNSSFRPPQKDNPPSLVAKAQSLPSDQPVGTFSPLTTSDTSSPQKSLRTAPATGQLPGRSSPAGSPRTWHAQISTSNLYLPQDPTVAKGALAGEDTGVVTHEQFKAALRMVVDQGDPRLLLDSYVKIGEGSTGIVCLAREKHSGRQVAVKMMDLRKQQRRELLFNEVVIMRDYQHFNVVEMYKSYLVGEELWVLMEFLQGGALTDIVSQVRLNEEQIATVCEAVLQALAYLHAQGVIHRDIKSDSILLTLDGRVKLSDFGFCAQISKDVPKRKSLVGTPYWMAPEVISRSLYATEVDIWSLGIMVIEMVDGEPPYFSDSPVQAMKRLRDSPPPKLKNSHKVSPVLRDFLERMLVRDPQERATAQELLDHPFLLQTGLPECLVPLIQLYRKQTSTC
Chain of Serine/threonine-protein kinase STK11 (Homo sapiens) (Q15831 whole entry): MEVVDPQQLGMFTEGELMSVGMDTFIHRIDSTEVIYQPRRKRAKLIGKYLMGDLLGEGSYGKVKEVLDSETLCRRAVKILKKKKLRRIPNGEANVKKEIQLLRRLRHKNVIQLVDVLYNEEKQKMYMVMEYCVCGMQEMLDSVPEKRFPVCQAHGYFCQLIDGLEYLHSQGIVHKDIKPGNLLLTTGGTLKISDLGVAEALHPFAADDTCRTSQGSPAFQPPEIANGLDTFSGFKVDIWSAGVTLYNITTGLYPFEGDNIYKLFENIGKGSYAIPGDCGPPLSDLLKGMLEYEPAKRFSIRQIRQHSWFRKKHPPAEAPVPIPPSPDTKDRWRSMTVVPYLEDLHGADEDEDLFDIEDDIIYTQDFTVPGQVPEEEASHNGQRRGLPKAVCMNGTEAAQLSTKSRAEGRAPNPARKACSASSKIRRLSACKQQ
Chain of Mitogen-activated protein kinase 13 (Homo sapiens) (O15264 whole entry): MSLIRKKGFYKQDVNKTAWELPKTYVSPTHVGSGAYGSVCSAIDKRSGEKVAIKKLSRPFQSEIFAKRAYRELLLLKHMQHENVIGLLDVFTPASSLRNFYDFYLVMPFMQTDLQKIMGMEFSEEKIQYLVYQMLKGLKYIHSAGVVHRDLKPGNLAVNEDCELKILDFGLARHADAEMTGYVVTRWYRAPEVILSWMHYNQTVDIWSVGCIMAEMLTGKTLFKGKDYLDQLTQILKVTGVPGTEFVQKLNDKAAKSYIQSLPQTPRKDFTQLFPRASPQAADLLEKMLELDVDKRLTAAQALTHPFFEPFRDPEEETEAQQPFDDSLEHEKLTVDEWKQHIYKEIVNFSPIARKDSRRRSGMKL
Chain of NUAK family SNF1-like kinase 1 (Homo sapiens) (O60285 whole entry): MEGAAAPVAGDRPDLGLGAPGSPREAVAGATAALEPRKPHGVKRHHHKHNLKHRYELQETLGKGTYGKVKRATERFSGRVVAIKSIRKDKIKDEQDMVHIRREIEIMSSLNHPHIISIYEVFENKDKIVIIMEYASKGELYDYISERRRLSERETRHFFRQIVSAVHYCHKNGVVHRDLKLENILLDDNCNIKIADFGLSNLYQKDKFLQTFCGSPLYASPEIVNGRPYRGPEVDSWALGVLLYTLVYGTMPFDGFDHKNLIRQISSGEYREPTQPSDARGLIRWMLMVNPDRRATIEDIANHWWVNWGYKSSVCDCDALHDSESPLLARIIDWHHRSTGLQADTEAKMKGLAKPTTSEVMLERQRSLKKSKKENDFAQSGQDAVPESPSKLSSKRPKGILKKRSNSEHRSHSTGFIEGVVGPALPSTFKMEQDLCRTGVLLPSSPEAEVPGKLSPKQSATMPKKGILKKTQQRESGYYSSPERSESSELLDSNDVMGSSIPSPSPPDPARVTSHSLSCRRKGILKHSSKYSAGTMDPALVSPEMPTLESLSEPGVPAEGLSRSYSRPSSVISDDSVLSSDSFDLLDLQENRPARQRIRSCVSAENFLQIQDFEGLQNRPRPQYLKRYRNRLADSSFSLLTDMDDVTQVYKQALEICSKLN
Chain of Ephrin type-B receptor 4 (Homo sapiens) (P54760 whole entry): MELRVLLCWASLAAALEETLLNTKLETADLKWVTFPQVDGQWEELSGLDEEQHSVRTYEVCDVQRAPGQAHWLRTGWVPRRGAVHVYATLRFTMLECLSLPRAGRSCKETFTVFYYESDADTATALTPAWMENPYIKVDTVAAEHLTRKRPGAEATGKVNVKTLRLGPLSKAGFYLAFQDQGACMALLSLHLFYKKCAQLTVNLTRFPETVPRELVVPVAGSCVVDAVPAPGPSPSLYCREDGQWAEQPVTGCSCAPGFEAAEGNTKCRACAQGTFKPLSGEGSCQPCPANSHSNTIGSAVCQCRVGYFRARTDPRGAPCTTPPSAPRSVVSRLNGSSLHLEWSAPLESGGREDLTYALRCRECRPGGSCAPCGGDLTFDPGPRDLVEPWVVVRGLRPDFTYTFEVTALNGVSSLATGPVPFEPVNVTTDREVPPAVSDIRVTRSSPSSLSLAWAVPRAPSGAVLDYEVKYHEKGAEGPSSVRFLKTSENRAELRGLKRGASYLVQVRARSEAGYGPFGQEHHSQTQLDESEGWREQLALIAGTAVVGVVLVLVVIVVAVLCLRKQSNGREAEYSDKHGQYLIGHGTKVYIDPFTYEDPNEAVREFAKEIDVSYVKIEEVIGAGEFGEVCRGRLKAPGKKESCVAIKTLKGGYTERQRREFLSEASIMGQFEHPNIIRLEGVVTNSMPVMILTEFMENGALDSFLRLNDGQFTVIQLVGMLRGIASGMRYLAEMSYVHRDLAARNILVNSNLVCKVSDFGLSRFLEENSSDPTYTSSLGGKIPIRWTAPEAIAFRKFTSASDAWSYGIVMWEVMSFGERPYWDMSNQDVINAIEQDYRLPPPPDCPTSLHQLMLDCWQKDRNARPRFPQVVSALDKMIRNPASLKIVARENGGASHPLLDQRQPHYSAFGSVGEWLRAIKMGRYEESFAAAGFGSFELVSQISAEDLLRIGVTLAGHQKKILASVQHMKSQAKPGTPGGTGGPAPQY
Chain of MAP kinase-interacting serine/threonine-protein kinase 1 (Homo sapiens) (Q9BUB5 whole entry, looked up): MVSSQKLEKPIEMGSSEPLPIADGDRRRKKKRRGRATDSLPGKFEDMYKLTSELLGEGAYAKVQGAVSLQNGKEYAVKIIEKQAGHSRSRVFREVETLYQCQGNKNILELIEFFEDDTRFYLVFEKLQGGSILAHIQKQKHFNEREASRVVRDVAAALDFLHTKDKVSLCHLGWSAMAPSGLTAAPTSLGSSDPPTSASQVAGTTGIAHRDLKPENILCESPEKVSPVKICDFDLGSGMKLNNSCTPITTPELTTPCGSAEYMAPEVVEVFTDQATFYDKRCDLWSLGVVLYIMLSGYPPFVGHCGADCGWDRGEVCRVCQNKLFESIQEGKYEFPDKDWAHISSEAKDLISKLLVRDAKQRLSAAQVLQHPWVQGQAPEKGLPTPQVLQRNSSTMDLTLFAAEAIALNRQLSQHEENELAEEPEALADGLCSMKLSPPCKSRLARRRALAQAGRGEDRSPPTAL
Chain of Tyrosine-protein kinase BTK (Homo sapiens) (Q06187 whole entry): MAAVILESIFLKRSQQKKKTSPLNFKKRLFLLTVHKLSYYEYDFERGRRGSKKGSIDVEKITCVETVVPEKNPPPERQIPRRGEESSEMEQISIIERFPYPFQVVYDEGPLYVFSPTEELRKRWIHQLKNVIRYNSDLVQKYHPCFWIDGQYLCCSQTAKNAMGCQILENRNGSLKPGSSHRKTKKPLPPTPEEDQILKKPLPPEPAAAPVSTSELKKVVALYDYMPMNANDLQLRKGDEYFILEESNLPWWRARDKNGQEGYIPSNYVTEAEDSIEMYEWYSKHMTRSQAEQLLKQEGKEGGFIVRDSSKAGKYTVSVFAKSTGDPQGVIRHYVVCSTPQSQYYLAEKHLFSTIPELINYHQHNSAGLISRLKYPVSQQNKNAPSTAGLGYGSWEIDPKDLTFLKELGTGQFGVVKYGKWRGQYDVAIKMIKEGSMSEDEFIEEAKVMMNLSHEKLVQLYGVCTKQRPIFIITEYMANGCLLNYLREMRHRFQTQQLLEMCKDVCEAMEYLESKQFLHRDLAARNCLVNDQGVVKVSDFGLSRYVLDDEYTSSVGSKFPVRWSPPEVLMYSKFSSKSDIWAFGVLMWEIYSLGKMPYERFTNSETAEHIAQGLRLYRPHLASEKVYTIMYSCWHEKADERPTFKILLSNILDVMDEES
Chain of Aurora kinase A (Homo sapiens) (O14965 whole entry): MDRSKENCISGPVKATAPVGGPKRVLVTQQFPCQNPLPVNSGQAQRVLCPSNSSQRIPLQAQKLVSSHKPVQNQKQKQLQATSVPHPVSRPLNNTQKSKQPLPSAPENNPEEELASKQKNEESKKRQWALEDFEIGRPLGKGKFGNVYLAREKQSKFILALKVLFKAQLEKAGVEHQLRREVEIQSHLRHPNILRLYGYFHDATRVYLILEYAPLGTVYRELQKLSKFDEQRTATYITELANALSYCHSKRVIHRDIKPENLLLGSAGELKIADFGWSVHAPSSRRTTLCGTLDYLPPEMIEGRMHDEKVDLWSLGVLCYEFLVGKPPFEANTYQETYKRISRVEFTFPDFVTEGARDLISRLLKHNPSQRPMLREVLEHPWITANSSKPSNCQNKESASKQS

With `Nc1n[nH]c(N)c1/N=N/c1ccc(O)cc1`, the GI50 was found to be 29.9 µM with SNB-19; 17.1 µM in the assay on KM12; 17.7 µM in the assay with NCI-H226; 9.2 µM with K562; 20.3 µM in the assay on PC-3. In addition, the Activity in assay [1] is 107%; in assay [2], 41%; in assay [3], 99%; in assay [4], 37%; in assay [5], 37%; in [6], 40%. For the same molecule, the Activity was found to be 77% in assay [7]; 97% in assay [8]; 57% in [9]; 51% in [10]; 55% in assay [11].

The record behind these values is ChEMBL document CHEMBL1821675, “The selective P-TEFb inhibitor CAN508 targets angiogenesis” (Eur J Med Chem, 2011).
